Test results: patent EP4427807A1, “N-BRIDGED DIAZOCINE ANALOGUES OF CARBAMAZEPINE TO CONTROL NEURONAL ACTIVITY WITH LIGHT AND APPLICATIONS THEREOF” (Fundació Institut de Bioenginyeria de Catalunya (IBEC), priority 2023, dated 2024)
“Also recorded” adds a separate entry of the source. Read-outs that look alike come from different tables or passages of the source.

How the values were obtained:
[1] = Quantification of photostationary states (PSS) by HPLC at the isosbestic point; format: physicochemical; conditions: for ratio between the two isomers: cis (Z) / ratio between the two isomers: trans (E): HPLC
Procedure: High-performance Liquid Chromatography (HPLC) analysis were performed with a Waters Alliance e2695 Separation Module paired with a Waters 2998 UV/vis Photodiode Array Detector (Diode array 190-800 nm) and a Waters AQUITY QDa Mass Detector (positive ionization ESI+). Samples were injected on a XSelect CSH C18 […] 4.6x50 mm analytical column with the following mobile phases, respectively called line A and B: water with formic acid 0.1% (v/v) and acetonitrile with formic acid 0.1% (v/v). The injections were eluted with the following method: flow 1.6 mL/min, gradient 0.00-4.50 min, 5-100% B; 4.50-5.00 min, 100-5% B.
(§1) The photochromic response was characterized by the absorption spectra after irradiation with LEDs at λ = 365 nm, 380 nm, 420 nm, 460 nm, 500 nm. The maximal changes in the spectra were associated to the optimal λ to isomerize from Z to E and vice versa. Resistance to photofatigue was tested by cycles of illuminations between the optimal λ. The kinetics of the spontaneous relaxation in the dark (time course of absorption at a fixed λ) was measured to quantify the relaxation lifetime by fitting the plots to an exponential decay curve. The UV-vis absorption analysis for the photochromic characterization has been carried out at room temperature. Stock solutions were prepared in the concentration of 10 mM in DMSO. The solutions used for the measurements were obtained by diluting the stock solutions in PBS at the desired final concentration (in the range of 30 µM and 50 µM). Finally, the photostationary states (PSS) were quantified using HPLC at the λ corresponding to the isosbestic point.
The quantification of photostationary states (PSS) has been measured by HPLC analysis. The peaks at the Diode Array have been detected and integrated at the wavelength corresponding to the isosbestic point.

[2] = Photochemical characterization by UV-vis absorption (photoisomerization, thermal relaxation in the dark, photofatigue); format: physicochemical
Description: All reagents and solvents were purchased from Sigma-Aldrich and Cymit Quimica S.L. and were used without any further purification. Reactions were monitored by analytical thin layer chromatography (TLC) on commercial silica gel 60 F254 aluminum foils 20 x 20 cm (Merck). Spots were visualized under 254 or 365 nm UV lamp and/or with the use of an appropriate stain (ninidrine solution, Dragendorff reagent, alkaline potassium permanganate solution or phosphomolybdic acid solution 5% in ethanol). Compounds were purified by flash chromatography on PanReac Applichem silica gel 60 (40-63 µm) as stationary phase; the mobile phases are specified for each compound. All the UV/vis spectra and experiments were registered with Shimadzu UV-1800 UV-VIS spectrophotometer using quartz cuvettes (10 mm light path).
as §1, with “The” for “The photochromic response was characterized by the absorption spectra after irradiation with LEDs at λ = 365 nm, 380 nm, 420 nm, 460 nm, 500 nm. The”

[3] = test system: zebrafish (Danio rerio) larvae; experiment: Behavioural study (swimming activity) in zebrafish larvae under light cycles; format: in vivo
Procedure: Wild-type zebrafish embryos (Tupfel long-fin strain) were purchased from the animal facility of the Barcelona Biomedical Research Park (PRBB) and raised in darkness for 7 days at 28 °C in UV filtered tap water in Petri dishes (daily cleaned and refilled). Animal development was checked every 24 hours. Unhealthy or abnormal embryos and larvae were removed and euthanatized in tricaine methanosulfonate (400 mg/l). All experiments and procedures were conducted according to the European Directive 2010/63/EU.
Behavioral studies were conducted on wild-type zebrafish larvae at 7 days post-fertilization (dpf). Vehicle and compounds were added with a multichannel pipette to exclude differences related to a delay in the application of each solution. Movements were recorded and analyzed using the ZebraBox tracking system and the ZebraLab software (ViewPoint Life Science, France). On the morning of the test, 7-dpf larvae were moved into a new batch of fresh water and checked for motility capabilities and possible physical mutations. Larvae were then randomly divided into control and treatment groups. Each individual was placed in a separate well of a 96-well plate, each containing 200 µl of fresh UV filtered water and left undisturbed in the dark for 30 min to get acquainted with the new setting (habituation time). Afterwards, 100 µL of water were removed from each well and replaced with 100 µl of a double concentrated vehicle or treatment solution. At this point, the plate was inserted into the ZebraBox and the recording period started. Animals were exposed to controlled cycles of dark, 380 nm, 420 nm, 500 nm wavelengths or with a halogen lamp (warm white light), using the illumination protocols represented by coloured-shaded areas in their respective graphs (see figures). Illumination at 380, 420 and 500 nm was performed with a built-in array of 12 LEDs placed 12 cm away from the multiwell plate. The halogen lamp used was the Volpi Intralux 4000 (115 W). Light intensities, measured with a Newport 1916-C optical power meter coupled to a Newport 918D-SL-OD3R detector, were 0.21 mW·cm^-2 (380 nm), 2.43 mW·cm^-2 (420 nm) and 0.69 mW·cm^-2 (500 nm). All experiments were conducted between 12.00 and 15.00 pm (UTC+01:00).
Alterations of locomotor activity were determined by monitoring and measuring fast movements, swimming distances and duration of high-speed swimming. In particular, the dependent variables measured included: total distance travelled, distance travelled at ≤ 2 mm·s^-1, distance travelled at 2-6 mm·s^-1, distance travelled at ≥ 6 mm·s^-1, time spent moving, time spent freezing, and number of bursts. The arbitrary cut-off for motility (6 mm·s^-1) was chosen because no variance was found among the groups at lower speeds. Figures show distances travelled over 6 mm·s^-1 and total movements (addition of movements below cut-off high speed swimming) were not considered to limit the error of the video recording on minimal movements. Data were analysed by two-way ANOVA with Tukey's post-hoc test for statistical significance (GraphPad Prism 6).

[4] = test system: primary hippocampal neurons; experiment: Current clamp recording of action potential firing in cultured primary hippocampal neurons; format: cell-based, Sprague-Dawley rat; conditions: Rattus norvegicus, Hippocampal neuron
Procedure: Procedures were performed in accordance with the European guidelines for animal care and use in research and were approved by the Animal Experimentation Ethics Committee at the University of Barcelona. Sprague-Dawley rat pups (P 1-5) were sacrificed by decapitation, hippocampi were isolated and treated with 0.1% trypsin in HBSS (10 min, 37°C). Neurons were plated on Poly-D-Lysine (PDL)-coated 16 mm coverslips (0.5-1 x 10^5 cells) and incubated at 37°C, 5% CO2 for 1,5 hours (to allow cells adhesion) in MEM supplemented with heat-inactivated FBS (5%), heat-inactivated HS (5%), penstrep (10 Ul/ml), L-glutamine (2mM) and glucose (20mM). Cells were cultured in Neurobasal A medium, supplemented with B-27 (5%), penstrep (5 Ul/ml), glutaMAX (0,5x) and glucose (15mM). On DIV 3 cultured cells were treated with 1 µM of Ara-C to prevent proliferation of non-neuronal cells. 50% of the maintenance medium was exchanged every 4 days.
Whole-cell recordings were performed at room temperature using an EPC-10 amplifier (HEKA Elektronik, Germany) and Patch Master software (HEKA). […] Firing of primary hippocampal neurons was recorded in current clamp configuration. […]
Data was analyzed using Igor Pro 6.05 (WaveMatrics, USA) and Origin 8.0 (OriginLab, USA) software. […] Statistical difference between groups was evaluated with Mann-Whitney test and was considered significant at the value of P below 0.05.

[5] = after irradiation at 400 nm for 3 minutes, 374 nm
[6] = after irradiation at 500 nm for 3 minutes, 374 nm
[7] = benchtop dark condition, isosbestic wavelength 374 nm

## NC(=O)N1Cc2ccccc2/N=N\c2ccccc21 [compound of formula (II), (Z)-dibenzo[c,g][1,2,5]triazocine-11(12H)-carboxamide]
[1]; [5]
  ratio between the two isomers: cis (Z): 49%
  ratio between the two isomers: trans (E): 51%
[1]; [6]
  ratio between the two isomers: cis (Z): ≥ 99%
  ratio between the two isomers: trans (E): not detected
[1]; [7]
  ratio between the two isomers: cis (Z): ≥ 99%
  ratio between the two isomers: trans (E): not detected
[1]; in the dark, at benchtop conditions
  isomer present in the dark: fully converted into the Z inactive isomer
[1]; irradiation at ≥ 500 nm
  E to Z back-isomerization: full back-isomerization to the Z inactive form
[2]; 90 W EPV halogen lamp (600-700 nm), after one minute irradiation
  E to Z isomerization: full conversion
[2]; 590 nm LED, over 1 h irradiation
  E to Z isomerization: quantitative conversion to the Z isomer
[2]; dark conditions, PBS 0.01M, 25°C
  half-life for relaxation in the dark t1/2: 3.2 h
[2]; several cycles of illumination
  resistance to several cycles of illumination (photofatigue): without degradation or loss in photochromic properties; also recorded: without loss in absorption or degradation
[3]; 1 µM, after the third illumination with blue light (420 nm)
  distance swum: significant increase of the distance swum
[3]; 10 µM, average of all green (500 nm) periods
  swimming distances: slightly increased
[3]; 10 µM, under blue light (420 nm)
  swimming activity: increasing the activity of the larvae
[3]; 10 µM, under green illumination (500 nm)
  swimming activity: returning to control levels
[3]; 50 µM, first blue light (420 nm) illumination periods, effect reduced with consecutive blue illumination
  swimming activity: significantly hyperactive
[3]; 1-50 µM, 7 dpf zebrafish larvae
  signs of toxicity or distress in the larvae: No signs of toxicity or distress
[3]; all concentrations (1, 10, 50 µM), green light (500 nm), each period compared individually to control
  swimming distances: did not alter significantly the swimming distances
[3]; first 20 minutes of the experiment, full darkness, 7 dpf larvae
  effect on swimming behaviour in the dark: no effects
[3]; illumination with warm white light (halogen lamp), all treated groups
  hyperactivity of treated larvae: blocked the hyperactivity
[4]; spontaneously firing neurons, without blue light (Fig 2B: 500 nm), P > 0.05, mean ± SD, read-out: frequency of the action potentials generation, % from control
  activity at 30 µM: 72 ± 5%
[4]; under blue light (400 nm) illumination, P < 0.01, n=4, mean ± SD, read-out: frequency of the action potentials generation (firing), % from control
  activity at 30 µM: 28 ± 13%
